Results reported in ChEMBL document CHEMBL3407363, “Vitamin D3 analogues that contain modified A- and seco-B-rings as hedgehog pathway inhibitors” (Eur J Med Chem, 2015).

Tests used:
[1] = Inhibition of hedgehog signaling in mouse C3H10T1/2 cells assessed as reduction in Gli1 mRNA level after 24 hrs by quantitative PCR analysis; type: cell-based; conditions: for inhibition: C3H 10T1/2; for IC50: C3H 10T1/2, 24 h
Vitamin D3 receptor [2] = target: T1, Vitamin D3 receptor (Mus musculus, UniProt P48281); test: Activation of VDR in mouse ASZ cells assessed as up-regulation of Cyp24A1 mRNA at 5 uM after 24 hrs by quantitative PCR analysis relative to control; type: ADME, cell-based
T1 sequence (P48281 whole entry): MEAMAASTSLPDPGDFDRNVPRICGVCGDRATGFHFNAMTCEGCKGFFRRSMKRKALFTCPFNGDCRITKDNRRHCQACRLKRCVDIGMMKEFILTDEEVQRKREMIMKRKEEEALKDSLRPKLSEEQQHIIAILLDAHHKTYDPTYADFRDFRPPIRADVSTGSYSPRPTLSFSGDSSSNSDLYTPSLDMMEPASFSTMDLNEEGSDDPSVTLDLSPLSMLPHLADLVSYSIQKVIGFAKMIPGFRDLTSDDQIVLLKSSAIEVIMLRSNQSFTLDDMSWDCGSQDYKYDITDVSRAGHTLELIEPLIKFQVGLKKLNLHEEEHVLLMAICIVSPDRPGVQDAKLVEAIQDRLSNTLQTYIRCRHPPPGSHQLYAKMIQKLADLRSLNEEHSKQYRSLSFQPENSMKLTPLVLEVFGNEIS

[3] = target: T2, Vitamin D3 receptor (Homo sapiens) (UniProt P11473); test: Binding affinity to full length human VDR by fluorescent displacement assay
T2 sequence (whole entry): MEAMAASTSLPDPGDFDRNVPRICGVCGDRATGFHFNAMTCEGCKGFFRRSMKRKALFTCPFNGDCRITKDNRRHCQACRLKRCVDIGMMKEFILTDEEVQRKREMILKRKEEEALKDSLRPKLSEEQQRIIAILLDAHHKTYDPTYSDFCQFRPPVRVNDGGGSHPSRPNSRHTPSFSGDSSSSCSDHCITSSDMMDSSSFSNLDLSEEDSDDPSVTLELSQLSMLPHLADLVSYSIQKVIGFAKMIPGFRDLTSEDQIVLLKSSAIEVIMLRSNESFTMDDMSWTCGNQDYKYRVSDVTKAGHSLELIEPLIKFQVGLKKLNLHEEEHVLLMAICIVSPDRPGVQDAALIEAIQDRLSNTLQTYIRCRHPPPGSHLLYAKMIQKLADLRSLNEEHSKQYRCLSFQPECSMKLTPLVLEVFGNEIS

[4] = Inhibition of hedgehog signaling in mouse C3H10T1/2 cells assessed as reduction in Gli1 mRNA level at 5 uM after 24 hrs by quantitative PCR analysis relative to control; type: cell-based; conditions: C3H 10T1/2, values are per cent of control
Vitamin D3 receptor [5] = target: T1, Vitamin D3 receptor; test: Activation of VDR in mouse ASZ cells assessed as up-regulation of Cyp24A1 mRNA at 2.5 uM after 24 hrs by quantitative PCR analysis relative to control; type: ADME, cell-based

| SMILES | inhibition [1] | IC50 [1] | Activity (Vitamin D3 receptor [2]) | K [3] | response, % of control [4] | Activity (Vitamin D3 receptor [5]) |
| --- | --- | --- | --- | --- | --- | --- |
| CC(C)CCC[C@@H](C)[C@H]1CC[C@H]2[C@@H](Nc3cccc(O)c3)CCC[C@]12C | Dose-dependent effect | 1000 nM | 1.8% | > 100 µM | 11.6% | – |
| CC(C)CCC[C@@H](C)[C@H]1CC[C@@H]2[C@@H](O)CCC[C@]12C | – | – | – | – | 48.7% | – |
| CC(C)CCC[C@@H](C)[C@H]1CC[C@H]2/C(=C/C(=O)Nc3cccc(O)c3)CCC[C@]12C | Dose-dependent effect | 1000 nM | 4.5% | > 100 µM | 12.1% | – |
| CC(C)CCC[C@@H](C)[C@H]1CC[C@H]2[C@H](O)CCC[C@]12C | – | – | – | – | 74% | – |
| CC(C)CCC[C@@H](C)[C@H]1CC[C@H]2[C@@H](OC(=O)CCc3ccc(O)cc3)CCC[C@]12C | – | – | – | – | 20.1% | – |
| CC(C)CCC[C@@H](C)[C@H]1CC[C@H]2/C(=N/O)CCC[C@]12C | – | – | – | – | 86.1% | – |
| CC(C)CCC[C@@H](C)[C@H]1CC=C2C(=O)CCC[C@@]21C | – | – | – | – | 63.4% | – |
| CC(C)CCC[C@@H](C)[C@H]1CC[C@H]2/C(=C/C(=O)Nc3ccc(O)cc3)CCC[C@]12C | Dose-dependent effect | 1200 nM | 4.4% | > 100 µM | 1.8% | – |
| CC(C)CCC[C@@H](C)[C@H]1CC[C@H]2C(=O)CCC[C@]12C | – | – | – | – | 66.1% | – |
| CC(C)CCC[C@@H](C)[C@H]1CC[C@H]2[C@H](Nc3ccc(O)cc3)CCC[C@]12C | Dose-dependent effect | 320 nM | 3% | > 100 µM | 1.3% | – |
| CC(C)CCC[C@@H](C)[C@H]1CC[C@H]2[C@@H](OC(=O)/C=C/c3ccccc3O)CCC[C@]12C | – | – | – | – | 94.2% | – |
| CC(C)CCC[C@@H](C)[C@H]1CC[C@H]2[C@H](C(=O)c3cccc(O)c3)CCC[C@]12C | Dose-dependent effect | 1800 nM | 7.8% | > 100 µM | 11% | – |
| CC(C)CCC[C@@H](C)[C@H]1CC=C2[C@H](O)CCC[C@@]21C | – | – | – | – | 90.1% | – |
| CC(C)CCC[C@@H](C)[C@H]1CC[C@H]2[C@@H](OC(=O)c3cccc(O)c3)CCC[C@]12C | Dose-dependent effect | 740 nM | 1.9% | > 100 µM | 1.9% | – |
| CC(C)CCC[C@@H](C)[C@H]1CC[C@@H]2[C@]1(C)CCC[C@@]2(O)c1cccc(O)c1 | – | – | – | – | 39.5% | – |
| C=C1CC[C@H](O)C/C1=C/C=C1\CCC[C@]2(C)[C@@H]([C@H](C)CCCC(C)C)CC[C@@H]12 [CHOLECALCIFEROL] | Dose-dependent effect | 4100 nM | – | > 100 µM | 35.7% | 764% |
| CCOC(=O)/C=C1\CCC[C@]2(C)[C@@H]([C@H](C)CCCC(C)C)CC[C@@H]12 | – | – | – | – | 107% | – |

| SMILES | inhibition [1] | IC50 [1] | Activity (Vitamin D3 receptor [2]) | K [3] | response, % of control [4] | Activity (Vitamin D3 receptor [5]) |
| --- | --- | --- | --- | --- | --- | --- |
| CC(C)CCC[C@@H](C)[C@H]1CC[C@H]2[C@@H](O)CCC[C@]12C | – | – | – | – | 46.4% | – |
| CC(C)CCC[C@@H](C)[C@H]1CC[C@H]2[C@@H](OC(=O)Cc3cccc(O)c3)CCC[C@]12C | Dose-dependent effect | 790 nM | 3.5% | > 100 µM | 1.8% | – |
| CC(C)CCC[C@@H](C)[C@H]1CC[C@H]2[C@@H](Nc3ccc(O)cc3)CCC[C@]12C | Dose-dependent effect | 400 nM | 2.7% | > 100 µM | 0.7% | – |
| CC(C)CCC[C@@H](C)[C@H]1CC[C@H]2[C@@H](OC(=O)CCc3ccccc3O)CCC[C@]12C | – | – | – | – | 47.4% | – |
| CC(C)CCC[C@@H](C)[C@H]1CC[C@H]2[C@@H](OC(=O)/C=C/c3ccc(O)cc3)CCC[C@]12C | – | – | – | – | 62.1% | – |
| CC(C)CCC[C@@H](C)[C@H]1CC[C@H]2[C@@H](NC(=O)c3cccc(O)c3)CCC[C@]12C | Dose-dependent effect | 980 nM | 1.8% | > 100 µM | 2.5% | – |
| CC(C)CCC[C@@H](C)[C@H]1CC[C@H]2[C@H](CO)CCC[C@]12C | – | – | – | – | 55.1% | – |
| CC(C)CCC[C@@H](C)[C@H]1CC[C@H]2/C(=C/C(=O)Nc3ccccc3)CCC[C@]12C | – | – | – | – | 41.7% | – |
| CC(C)CCC[C@@H](C)[C@H]1CC[C@H]2[C@H](CCO)CCC[C@]12C | Dose-dependent effect | 2400 nM | 1.3% | > 100 µM | 2.8% | – |
| CC(C)CCC[C@@H](C)[C@H]1CC[C@H]2[C@@H](OC(=O)/C=C/c3cccc(O)c3)CCC[C@]12C | – | – | – | – | 57.2% | – |
| CC(C)CCC[C@@H](C)[C@H]1CC[C@H]2[C@@H](OC(=O)CCc3cccc(O)c3)CCC[C@]12C | Dose-dependent effect | 2600 nM | 7.6% | > 100 µM | 15.3% | – |
| CC(C)CCC[C@@H](C)[C@H]1CC[C@H]2/C(=C/CO)CCC[C@]12C | – | – | – | – | 15.1% | – |
| CC(C)CCC[C@@H](C)[C@H]1CC[C@H]2C(c3cccc(O)c3)=CCC[C@]12C | – | – | – | – | 37.2% | – |
| CC(C)CCC[C@@H](C)[C@H]1CC[C@H]2/C(=C/C(=O)Nc3ccccc3O)CCC[C@]12C | Dose-dependent effect | 1500 nM | 14% | > 100 µM | 1.1% | – |
| CC(C)CCC[C@@H](C)[C@H]1CC[C@H]2[C@@H](Nc3ccccc3O)CCC[C@]12C | Dose-dependent effect | 1200 nM | 4.4% | > 100 µM | 2% | – |
| CC(C)CCC[C@@H](C)[C@H]1CC[C@H]2[C@H](OC(=O)c3cccc(O)c3)CCC[C@]12C | Dose-dependent effect | 3900 nM | 1.6% | > 100 µM | 30.6% | – |
| CC(C)CCC[C@@H](C)[C@H]1CC[C@H]2[C@H](c3cccc(O)c3)CCC[C@]12C | – | – | – | – | 47.9% | – |
